Patent US20250302981A1, “NOVEL USE OF ANTICANCER AGENT PRODRUG CONJUGATE” (UNIVERSITY OF ULSAN FOUNDATION FOR INDUSTRY COOPERATION, priority 2020, published 2025)
*1 amine or outer side, *2 acyl side, *3 side chain or, on linkers, in order; H or OH if unused. Where a SMILES comes first, the peptide text is derived from it. [ ]: non-standard residue; d: D form. The star is where a group is joined. Doxorubicin(3'-N) = COc1cccc2c1C(=O)c1c(O)c3c(c(O)c1C2=O)C[C@@](O)(C(=O)CO)C[C@@H]3O[C@H]1C[C@H](N*)[C@H](O)[C@H](C)O1; Hexanoyl(6-maleimido) = O=C1C=CC(=O)N1CCCCCC(=O)*; PABC = O=C(OCc1ccc(N[*:1])cc1)[*:2]

Legend:
[1] = Pharmacokinetic analysis in cynomolgus monkeys; type: in vivo; details: intravenous, equivalent to 1 mg/kg doxorubicin
Method: Blood samples were collected at 15, 30, 45, 60, and 90 min intervals, and then again at 2, 3, 4, 6, 8, 12, 24, 48, 72, 96, 120, 144, and 168 h. The blood samples were stabilized with sodium citrate and then cryocentrifuged at 2000×g for 15 min to obtain plasma. 200 μl of the plasma sample was added to a 96-well black microplate and the fluorescence of doxorubicin was measured at 485/590 nm. The reference was fresh plasma and the fluorescence was measured in the same manner.

[2] = test system: tumor cells having KRAS variant genotype (Mia-paca2); test: Tumor inhibition compared with Aldoxorubicin in mice implanted with KRAS variant tumor cells; type: in vivo, C3H/HeN mice; details: Mia-paca2, intravenous every 3 days, equivalent to 5 mg/kg doxorubicin, 1 month
Description: Using C3H/HeN mice implanted with tumor cells having KRAS variant genotype (Mia-paca2), the tumor inhibition effect of the maleimide-KGDEVD-PABC-doxorubicin (MPD1) synthesized in Example 1 of the present invention, the maleimide-KGDVED-PABC-doxorubicin (EMC-KGDVED-DOX) with different peptide sequence, and Aldoxorubicin, a conventional doxorubicin-based anticancer drug which is linked to a maleimide so that it binds to albumin in plasma upon administration and increases half-life, were compared (FIGS. 19 and 20).

[3] = Pharmacokinetic analysis in rats; type: in vivo, Sprague-Dawley rats; details: equivalent to 1 mg/kg doxorubicin; for half-life: Sprague-Dawley, rat, plasma, iv, 1 mg/kg
Method: Blood samples were collected at 5, 15, 30, 60, and 90 min intervals and then again at 2, 4, 8, 12, 24, 48, 72, 96, and 144 h. The blood samples were stabilized with sodium citrate and then cryocentrifuged at 2000×g for 15 min to obtain plasma. 200 μl of the plasma sample was placed in a 96-well black microplate and the fluorescence of doxorubicin was measured at 485/590 nm. The reference was fresh plasma and the fluorescence was measured in the same manner.

[4] = target: T1, human serum albumin (HSA) (Homo sapiens, UniProt P02768); test: Conjugate binding with human serum albumin, HPLC analysis
T1 construct: purchased Sigma-Aldrich
Method: The maleimide-KGDEVD-PABC-doxorubicin synthesized in Example 1 was then added to a concentration of 100 μM and incubated at room temperature. The samples were analyzed by analytical HPLC (FIG. 1). (KGDEVD corresponds to SEQ ID NO: 32)

[5] = test system: tumor cell lines with wild-type KRAS genotype; test: Concentration-dependent cytotoxicity by MTT analysis; type: cell-based; details: wild-type KRAS cells, concentrations up to 100 μM
[6] = test system: tumor cell lines with KRAS variant genotype; test: as above; type: cell-based; details: KRAS variant cells
[7] = test system: tumor cell lines with PTEN protein loss genotype; test: as above; type: cell-based; details: PTEN protein loss cells, up to 100 μM
[8] = target: T2, serum albumin in human blood (human plasma sample) (Homo sapiens, UniProt P02768); test: Conjugate binding with serum albumin in human plasma, HPLC analysis
T2 construct: from tissue; host or cells: human plasma
Method: The conjugation binding of maleimide-KGDEVD-PABC-doxorubicin with HSA was completed in 3 min. However, when plasma was pre-incubated with 4-maleimidobutyric acid which has a thiol-bound maleimide functional group, prior to incubation with maleimide-KGDEVD-PABC-doxorubicin no, binding of maleimide-KGDEVD-PABC-doxorubicin to plasma was observed even after 1 h as in the previous experiment conducted with serum.

[9] = test system: cancer cell groups with PTEN protein loss genotype (H1299, MDA-MB436); test: Tumor growth in mice inoculated with PTEN protein loss tumor cells; type: in vivo, C3H/HeN mice; details: intravenous every 3 days, equivalent to 1, 5 and 10 mg/kg doxorubicin, 1 month; compared to the control group
Method: The maleimide-KGDEVD-PABC-doxorubicin was administered intravenously every 3 days at concentrations equivalent to 1, 5, and 10 mg/kg of doxorubicin, respectively, and observed for 1 month.

[10] = test system: cell lines with KRAS variant genotype (Mia-paca2, AsPC1, MDA-MB231, CT26, HCT116, H2122, A549); test: Tumor growth in mice inoculated with wild-type KRAS or KRAS variant tumor cells; type: in vivo, C3H/HeN mice; details: intravenous every 3 days, equivalent to 1, 5 and 10 mg/kg doxorubicin, 1 month
Method: The maleimide-KGDEVD-PABC-doxorubicin was administered intravenously every 3 days at doses equivalent to 1, 5, and 10 mg/kg of doxorubicin, respectively, and then observed for 1 month. […] Therefore, the prodrug conjugate according to one embodiment of the present invention is not expected to have significant side effects.

[11] = test system: tumor cell lines with wild-type PTEN protein genotype; test: Concentration-dependent cytotoxicity by MTT analysis; type: cell-based; details: PTEN wild-type cells, up to 100 μM
[12] = target: HSA-maleimide-KGDEVD-PABC-doxorubicin, P02768
[13] = target: HSA-Maleimide-KGDVED-PABC-doxorubicin, P02768

Q: With `COc1cccc2c1C(=O)c1c(O)c3c(c(O)c1C2=O)C[C@@](O)(C(=O)CO)C[C@@H]3O[C@H]1C[C@H](NC(=O)OCc2ccc(NC(=O)[C@H](CC(=O)O)NC(=O)[C@@H](NC(=O)[C@H](CCC(=O)O)NC(=O)[C@H](CC(=O)O)NC(=O)CNC(=O)[C@H](CCCCN)NC(C)=O)C(C)C)cc2)[C@H](O)[C@H](C)O1` [AcKGDEVD-PABC-doxorubicin, Ac-Lys-Gly-Asp-Glu-Val-Asp-PABC-DOX, reference compound] (Ac-KGDEVD[PABC]-{Doxorubicin(3'-N)}) as the molecule, how does the “time until plasma concentration decreased below the detection limit of 5 ng/ml” value [1] read?
A: ≤ 6 h

Q: Which results are given for `COc1cccc2c1C(=O)c1c(O)c3c(c(O)c1C2=O)C[C@@](O)(C(=O)CO)C[C@@H]3O[C@H]1C[C@H](NC(=O)OCc2ccc(NC(=O)[C@H](CC(=O)O)NC(=O)[C@@H](NC(=O)[C@H](CCC(=O)O)NC(=O)[C@H](CC(=O)O)NC(=O)CNC(=O)[C@H](CCCCNC(=O)CCCCCN3C(=O)C=CC3=O)NC(C)=O)C(C)C)cc2)[C@H](O)[C@H](C)O1` [maleimide-KGDEVD-PABC-doxorubicin, Ac-Lys(EMC)-Gly-Asp-Glu-Val-Asp-PABC-DOX] (Ac-K(Hexanoyl(6-maleimido))GDEVD[PABC]-{Doxorubicin(3'-N)})?
A: in vivo anticancer effects (tumor inhibition) [2]: anticancer effects similar to those of Aldoxorubicin; half-life ([3]; read-out: half-life): > 19 h; half-life ([3]; read-out: terminal half-life): 0.5 h; time remained active in plasma after administration ([3]; intravenous): 6 days; time until plasma concentrations decreased below the detection limit of 5 ng/ml ([3]; intravenous): ≤ 4 h; time to complete conjugate binding with HSA ([4]; HSA 700 μM in PBS, conjugate 100 μM, room temperature): 3 min; binding to HSA pre-incubated with 4-maleimidobutyric acid ([4]; HSA pre-incubated with 4-maleimidobutyric acid, after 1 h): no binding; IC50 [5]: generally higher; IC50 [6]: lower; IC50 values based on doxorubicin [7]: higher IC50 values; time to complete conjugation binding with HSA in human plasma ([8]; human plasma, conjugate 100 μM, room temperature): 3 min; binding to plasma pre-incubated with 4-maleimidobutyric acid ([8]; plasma pre-incubated with 4-maleimidobutyric acid, after 1 h): no, binding; tumor inhibition [9]: greater tumor inhibition; half-life ([1]; cynomolgus monkey, in vivo, read-out: terminal half-life): > 106 h; time detectable in plasma after administration [1]: 7 days; tumor growth inhibition ([10]; KRAS variant versus wild-type KRAS tumors): better tumor growth inhibition than those with wild-type KRAS genotype; effect on body weight of the experimental animals ([10]; wild-type KRAS and KRAS variant tumors): none of the drugs had a significant effect on the body weight; IC50 values based on doxorubicin [11]: lower IC50 values

B1: recombinant human caspase-3 (protein)
chain: SGISLDNSYKMDYPEMGLCIIINNKNFHKSTGMTSRSGTDVDAANLRETFRNLKYEVRNKNDLTREEIVELMRDVSKEDHSKRSSFVCVLLSHGEEGIIFGTNGPVDLKKITNFFRGDRCRSLTGKPKLFIIQACRGTELDCGIETDSGVDDDMACHKIPVEADFLYAYSTAPGYYSWRNSKDGSWFIQSLCAMLKQYADKLEFMHILTRVNRKVATEFESFSFDATFHAKKQIPCIVSMLTKELYFYH
Q: What does the source list for B1?
A: cleavage and release of doxorubicin, HPLC [12]: Doxorubicin was cleaved and isolated from the HSA-maleimide-KGDEVD-PABC-doxorubicin conjugate within 1 h; cleavage and release of doxorubicin, HPLC [13]: no cleavage was observed for the HSA-Maleimide-KGDVED-PABC-doxorubicin conjugate with a different peptide amino acid sequence
